The test concerns the target T1, human TLR7 (Homo sapiens, UniProt Q9NYK1).
T1 sequence (Q9NYK1 27-1049): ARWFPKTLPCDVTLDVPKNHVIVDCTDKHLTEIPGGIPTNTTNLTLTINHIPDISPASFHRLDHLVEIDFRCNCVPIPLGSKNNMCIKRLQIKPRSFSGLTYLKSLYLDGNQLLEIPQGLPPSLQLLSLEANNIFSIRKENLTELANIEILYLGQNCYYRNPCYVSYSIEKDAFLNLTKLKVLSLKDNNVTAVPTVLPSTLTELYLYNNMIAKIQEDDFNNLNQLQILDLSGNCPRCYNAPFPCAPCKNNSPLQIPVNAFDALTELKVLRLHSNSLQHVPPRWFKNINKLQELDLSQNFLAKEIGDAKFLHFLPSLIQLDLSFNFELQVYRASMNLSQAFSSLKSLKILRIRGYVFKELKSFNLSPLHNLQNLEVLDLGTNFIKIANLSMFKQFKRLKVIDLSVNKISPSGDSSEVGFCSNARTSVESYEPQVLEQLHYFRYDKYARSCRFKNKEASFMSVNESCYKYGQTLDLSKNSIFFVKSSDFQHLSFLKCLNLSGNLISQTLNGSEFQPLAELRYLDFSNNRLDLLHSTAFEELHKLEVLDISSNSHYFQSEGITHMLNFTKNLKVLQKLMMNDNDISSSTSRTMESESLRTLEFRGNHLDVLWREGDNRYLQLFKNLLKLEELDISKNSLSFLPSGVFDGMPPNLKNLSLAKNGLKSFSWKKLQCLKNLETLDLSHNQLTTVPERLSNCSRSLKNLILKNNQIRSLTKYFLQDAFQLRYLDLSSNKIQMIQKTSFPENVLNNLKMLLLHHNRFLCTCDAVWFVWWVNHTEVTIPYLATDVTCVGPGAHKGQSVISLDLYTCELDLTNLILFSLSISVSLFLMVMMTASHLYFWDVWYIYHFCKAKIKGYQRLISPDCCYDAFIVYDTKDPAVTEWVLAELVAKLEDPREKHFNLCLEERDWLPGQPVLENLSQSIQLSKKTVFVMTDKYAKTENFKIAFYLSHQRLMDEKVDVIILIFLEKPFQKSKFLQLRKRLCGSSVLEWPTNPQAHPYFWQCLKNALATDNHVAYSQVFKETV
Put plainly: HEK293-Blue-hTLR-7 cells assay (SEAP reporter, R848 stimulation). It counts as cell-based. The following applies: HEK293-Blue-hTLR7 cells, R848 ligand, 20 hrs incubation. As for the experimental part: The following tests were carried out in order to determine the activity of the compounds of formula (I) in HEK293-Blue-hTLR-7/8/9 cells assay.
HEK293-Blue-hTLR-7 Cells Assay:
A stable HEK293-Blue-hTLR-7 cell line was purchased from InvivoGen (Cat. #: hkb-htlr7, San Diego, Calif., USA). These cells were originally designed for studying the stimulation of human TLR7 by monitoring the activation of NF-κB. A SEAP (secreted embryonic alkaline phosphatase) reporter gene was placed under the control of the IFN-β minimal promoter fused to five NF-κB and AP-1-binding sites. The SEAP was induced by activating NF-κB and AP-1 via stimulating HEK-Blue hTLR7 cells with TLR7 ligands. Therefore the reporter expression was declined by TLR7 antagonist under the stimulation of a ligand, such as R848 (Resiquimod), for incubation of 20 hrs. The cell culture supernatant SEAP reporter activity was determined using QUANTI-Blue™ kit (Cat. #: rep-qb1, Invivogen, San Diego, Ca, USA) at a wavelength of 640 nm, a detection medium that turns purple or blue in the presence of alkaline phosphatase.
HEK293-Blue-hTLR7 cells were incubated at a density of 250,000-450,000 cells/mL in a volume of 170 μL in a 96-well plate in Dulbecco's Modified Eagle's medium (DMEM) containing 4.5 g/L glucose, 50 U/mL penicillin, […], […], 2 mM L-glutamine, 10% (v/v) heat-inactivated fetal bovine serum with addition of 20 μL test compound in a serial dilution in the presence of final DMSO at 1% and 10 μL of 20 uM R848 in above DMEM, perform incubation under 37° C. in a CO2 incubator for 20 hrs. Then 20 μL of the supernatant from each well was incubated with 180 μL Quanti-blue substrate solution at 37° C. for 2 hrs and the absorbance was read at 620-655 nm using a spectrophotometer. The signalling pathway that TLR7 activation leads to downstream NF-κB activation has been widely accepted, and therefore similar reporter assay was modified for evaluating TLR7 antagonist.
Regarding `N#Cc1ccc(N2C[C@H](CN3CCC4(CCNCC4)C3)[C@@H](C(F)(F)F)C2)c2cccnc12` [Example 56, 5-[(3S,4R)-3-(2,8-Diazaspiro[4.5]decan-2-ylmethyl)-4-(trifluoromethyl)pyrrolidin-1-yl]quinoline-8-carbonitrile], the IC50 was 113 nM. As for `FC(F)(F)c1ccc(N2CC(CN3CCC4(CCNCC4)CC3)C3(CC3)C2)c2nccnc12` (centres unmarked) [Example 31, 3-[[5-[8-(Trifluoromethyl)quinoxalin-5-yl]-5-azaspiro[2.4]heptan-7-yl]methyl]-3,9-diazaspiro[5.5]undecane], the figure is 385 nM; as for `FC(F)(F)c1ccc(N2C[C@@H](CN3CCC4(CCNC4)C3)[C@H](C(F)(F)F)C2)c2nccnc12` (relative stereo) [Example 19, 5-[Trans-3-(2,7-diazaspiro[4.4]nonan-2-ylmethyl)-4-(trifluoromethyl)pyrrolidin-1-yl]-8-(trifluoromethyl)quinoxaline], 142 nM. Next, `N#Cc1ccc(N2CC(CN3CC4(CCCNC4)C3)C3(CC3)C2)c2nccnc12` (centres unmarked) [Example 24, 8-[7-(2,8-Diazaspiro[3.5]nonan-2-ylmethyl)-5-azaspiro[2.4]heptan-5-yl]quinoxaline-5-carbonitrile]: 298 nM. As for `N#Cc1ccc(N2C[C@H](CN3CCCC4(CCNCC4)C3)[C@@H](C(F)(F)F)C2)c2cccnc12` [Example 57, 5-[(3S,4R)-3-(2,9-Diazaspiro[5.5]undecan-2-ylmethyl)-4-(trifluoromethyl)pyrrolidin-1-yl]quinoline-8-carbonitrile], the figure is 73 nM; as for `C[C@H]1CN(c2ccc(C#N)c3ncccc23)C[C@@H]1CN1CCC2(CCNCC2)CC1` [Example 23, 5-[(3S,4R)-3-(3,9-diazaspiro[5.5]undecan-3-ylmethyl)-4-methyl-pyrrolidin-1-yl]quinoline-8-carbonitrile], 251 nM. The compound `CC[C@@H]1CN(c2ccc(C#N)c3ncccc23)C[C@H]1CN1CCC2(CCNC2)C1` (relative stereo) [Example 29, 5-[Trans-3-(2,7-diazaspiro[4.4]nonan-2-ylmethyl)-4-ethyl-pyrrolidin-1-yl]quinoline-8-carbonitrile] had an IC50 of 370 nM. Next, `CC[C@@H]1CN(c2ccc(C#N)c3ncccc23)C[C@H]1CN1CCC2(CCNCC2)CC1` (relative stereo) [Example 15, 5-[Trans-3-(3,9-diazaspiro[5.5]undecan-3-ylmethyl)-4-ethyl-pyrrolidin-1-yl]quinoline-8-carbonitrile]: 107 nM; `N#Cc1ccc(N2CCC(CN3CCC4(CCNCC4)CC3)C2)c2nccnc12` (centres unmarked) [Example 37, 8-[3-(3,9-Diazaspiro[5.5]undecan-3-ylmethyl)pyrrolidin-1-yl]quinoxaline-5-carbonitrile]: 651 nM. As for `N#Cc1ccc(N2C[C@H](CN3CC4(CC(N)C4)C3)[C@@H](C(F)(F)F)C2)c2cccnc12` [Example 53, 5-[(3S,4R)-3-[(6-Amino-2-azaspiro[3.3]heptan-2-yl)methyl]-4-(trifluoromethyl)pyrrolidin-1-yl]quinoline-8-carbonitrile], the figure is 115 nM; as for `N#Cc1ccc(N2C[C@H](CN3CCNCC3)[C@@H](C(F)(F)F)C2)c2nccnc12` [Example 59, 8-[(3S,4R)-3-(Piperazin-1-ylmethyl)-4-(trifluoromethyl)pyrrolidin-1-yl]quinoxaline-5-carbonitrile], 18 nM; as for `N#Cc1ccc(N2C[C@H](CN3CCC4(CCNCC4)C3)[C@@H](C(F)(F)F)C2)c2nccnc12` [Example 46, 8-[(3S,4R)-3-(2,8-diazaspiro[4.5]decan-2-ylmethyl)-4-(trifluoromethyl)pyrrolidin-1-yl]quinoxaline-5-carbonitrile], 93 nM. As for `N#Cc1ccc(N2CC(CN3CCC4(CCCCN4)CC3)C3(CC3)C2)c2nccnc12` (centres unmarked) [Example 65, 8-[7-(1,9-Diazaspiro[5.5]undecan-9-ylmethyl)-5-azaspiro[2.4]heptan-5-yl]quinoxaline-5-carbonitrile], the figure is 108 nM; as for `CC(C)[C@@H]1CN(c2ccc(C#N)c3ncccc23)C[C@H]1CN1CCC2(CCNCC2)CC1` (relative stereo) [Example 36, 5-[Trans-3-(3,9-diazaspiro[5.5]undecan-3-ylmethyl)-4-isopropyl-pyrrolidin-1-yl]quinoline-8-carbonitrile], 471 nM; as for `C[C@H]1CN(c2ccc(C#N)c3nccnc23)C[C@@H]1CN1CCC2(CCNCC2)CC1` [Example 17, 8-[(3S,4R)-3-(3,9-diazaspiro[5.5]undecan-3-ylmethyl)-4-methyl-pyrrolidin-1-yl]quinoxaline-5-carbonitrile], 128 nM.

`N#Cc1ccc(N2CC(CN3CCC4(CCNCC4)C3)C3(CC3)C2)c2nccnc12` (centres unmarked) [Example 32, 8-[7-(2,8-Diazaspiro[4.5]decan-2-ylmethyl)-5-azaspiro[2.4]heptan-5-yl]quinoxaline-5-carbonitrile] yielded an IC50 of 402 nM.

As for `N#Cc1ccc(N2C[C@H](CN3CCC(N)CC3)[C@@H](C(F)(F)F)C2)c2nccnc12` [Example 26, 8-[(3S,4R)-3-[(4-Amino-1-piperidyl)methyl]-4-(trifluoromethyl)pyrrolidin-1-yl]quinoxaline-5-carbonitrile], the IC50 is 55 nM.

Regarding `N#Cc1ccc(N2C[C@@H](CN3CCC4(CCNC4)C3)[C@H](C(F)F)C2)c2cccnc12` (relative stereo) [Example 34, 5-[Trans-3-(2,7-diazaspiro[4.4]nonan-2-ylmethyl)-4-(difluoromethyl)pyrrolidin-1-yl]quinoline-8-carbonitrile], the IC50 worked out at 454 nM.

In the case of `N#Cc1ccc(N2C[C@H](CN3CCC4(CCCNC4)CC3)[C@@H](C(F)(F)F)C2)c2cccnc12` [Example 55, 5-[(3S,4R)-3-(2,9-Diazaspiro[5.5]undecan-9-ylmethyl)-4-(trifluoromethyl)pyrrolidin-1-yl]quinoline-8-carbonitrile], it took 111 nM to reach half-maximal inhibition (IC50).

Compound `N#Cc1ccc(N2C[C@H](CN3CCC4(CCNC4)C3)[C@@H](C(F)(F)F)C2)c2cccnc12` (stereo partly drawn) [Example 9, 5-[(3S,4R)-3-(2,7-diazaspiro[4.4]nonan-2-ylmethyl)-4-(trifluoromethyl)pyrrolidin-1-yl]quinoline-8-carbonitrile] yielded an IC50 of 61 nM. On to `CC1(CN)CCCN(C[C@H]2CN(c3ccc(C#N)c4nccnc34)C[C@@H]2C(F)(F)F)C1` (stereo partly drawn) [Example 75, 8-[(3S,4R)-3-[[3-(aminomethyl)-3-methyl-1-piperidyl]methyl]-4-(trifluoromethyl)pyrrolidin-1-yl]quinoxaline-5-carbonitrile], for which the IC50 is 26 nM. The compound `N#Cc1ccc(N2C[C@H](CN3CCC(N4CCCCC4)CC3)[C@@H](C(F)(F)F)C2)c2nccnc12` [Example 61, 8-[(3S,4R)-3-[[4-(1-Piperidyl)-1-piperidyl]methyl]-4-(trifluoromethyl)pyrrolidin-1-yl]quinoxaline-5-carbonitrile] came in with an IC50 of 22 nM.

`N#Cc1ccc(N2C[C@H](CN3CC4CNCC4C3)[C@@H](C(F)(F)F)C2)c2nccnc12` (stereo partly drawn) [Example 76, 8-[(3S,4R)-3-(2,3,3a,4,6,6a-hexahydro-1H-pyrrolo[3,4-c]pyrrol-5-ylmethyl)-4-(trifluoromethyl)pyrrolidin-1-yl]quinoxaline-5-carbonitrile] registered an IC50 of 21 nM.

What is called IC50 is the point on the concentration scale where inhibition reaches its midpoint. The low end stands for greater potency in that assay, the high end for weaker potency in that assay.

The values are drawn from US20210253575A1, “PYRROLIDINE AMINE COMPOUNDS FOR THE TREATMENT OF AUTOIMMUNE DISEASE” (Hoffmann-La Roche Inc., priority 2018, published 2021).
